Data as given in ChEMBL document CHEMBL1137988, “Design and synthesis of a nitrogen mustard derivative stabilized by apo-neocarzinostatin” (J Med Chem, 2004).
pIC50, pKd: −log10 of the molar value.

Assays:
[1] = system: K562; assay: Cytotoxicity against human leukemia cell line K562; format: functional, cell-based
[2] = Dissociation binding constant was determined for apoNCS binding site using fluorescence quenching titration assay
[3] = Dissociation binding constant was determined for apoNCS binding site using fluorescence quenching titration assay; Insufficient change in fluorescence

| SMILES | pIC50 [1] | pKd [2] | Kd [3] |
| --- | --- | --- | --- |
| COc1cc(C)c2ccc(O)c(C(=O)OCCOC(=O)C(N)Cc3ccc(N(CCCl)CCCl)cc3)c2c1 (configuration not stated) | 5.15 | 4.33 | – |
| N[C@@H](Cc1ccc(N(CCCl)CCCl)cc1)C(=O)O [MELPHALAN] | 4.52 | – | Insufficient change in fluorescence |
| COc1cc(C)c2ccc(O)c(C(=O)OCCOC(=O)CCCc3ccc(N(CCCl)CCCl)cc3)c2c1 | 3.70 | < 3.00 | – |
| O=C(O)CCCc1ccc(N(CCCl)CCCl)cc1 [CHLORAMBUCIL] | 4.02 | – | – |
